In one series the test system is HBV. The series is described as follows: Anti-viral assay in HepG2.2.15 cells: anti-HBV activity, HBV DNA in culture medium by qPCR. It is filed as cell-based. The settings on record: HepG2.2.15 cells, 6 days treatment, HBV DNA by qPCR, read-out: EC50. On the procedure:
(§1) HepG2.2.15 (the HepG2.2.15 cell line can be produced by transfection of the HepG2 cell line as described in Sells, Chen, and Acs 1987 (Proc. Natl. Acad. Sci. USA 84: 1005-1009), and the HepG2 cell line is available from ATCC® under number HB-8065™)
(§2) HepG2.2.15 cells were plated into 96-well plate in 2% FBS culture medium at the density of 40,000 cells/well and 5,000cells/well for HBV inhibitory activity and cytotoxicity determination, respectively. After incubation at 37° C., 5% CO2 overnight, cells were treated with medium containing compounds for 6 days with medium and compounds refreshed after 3 days of treatment. Each compound was tested in a 1:3 serial dilutions at 8 different concentrations in triplicate. The highest concentration of the compounds was 10 uM or 1 uM for anti-HBV activity assay and 100 uM for cytotoxicity determination.
The change of HBV DNA level induced by the compounds was assessed by quantitative real-time polymerase chain reaction (qPCR). Briefly, the HBV DNA in the culture medium was extracted using QIAamp 96 DNA Blood Kit according to the manual and then quantified by real-time PCR assay using the primers and probe in the table 1 below.
(§3) EC50 and CC50 values are calculated by the […] PRISM software.

The nature of series [1]: Cytotoxicity determination in HepG2.2.15 cells (CCK-8 assay). The class given is cell-based. The following applies: human, 6 days treatment, CCK-8, highest concentration 100 uM. On the procedure: as §1, §2
Cell viability was determined by CCK-8 assay. After 6 days of compounds treatment, 20 μl CCK-8 reagents were added to each well of cytotoxicity assay plates. Cell plates were incubated at 37° C., 5% CO2 for 2.5 h. The absorbance at 450 nm wavelength and the absorbance at 630 nm wavelength as reference was measured.
as §3

Where [2] appears, read: Hepatitis B virus, HepG2.2.15, 144 h.

Structures are written as SMILES. Where two headings read alike, the source gives them in different places.

Experimental findings from patent US20230165865A1, “HETEROARYLDIHYDROPYRIMIDINE DERIVATIVES AND METHODS OF TREATING HEPATITIS B INFECTIONS” (Janssen Pharmaceutica NV, priority 2018, published 2023) are described below.

In the case of `COC(=O)C1=C(CN2CCN3C(=S)N(CC(C)(C)C(=O)O)CC3C2)NC(c2nccs2)=NC1c1ccc(F)c(F)c1Cl` (single isomer, unassigned) [Compound 11A, 3-(7-((6-(2-Chloro-3,4-difluorophenyl)-5-(methoxycarbonyl)-2-(thiazol-2-yl)-3,6-dihydropyrimidin-4-yl)methyl)-3-thioxohexahydroimidazo[1,5-a]pyrazin-2(3H)-yl)-2,2-dimethylpropanoic acid], the EC50 in the series on HBV (setting [2]) came to 1.9 nM. The compound further showed a half-maximal cytotoxic concentration (CC50) at 6 days in series [1] of 16200 nM.

For `CCOC(=O)C1=C(CN2CCN3C(=S)N(CC(C)(C)C(=O)O)C[C@@H]3C2)NC(c2ncoc2C)=N[C@H]1c1ccc(F)cc1Cl` (single isomer, unassigned) [Compound 33A, 3-(7-((6-(2-Chloro-4-fluorophenyl)-5-(ethoxycarbonyl)-2-(5-methyloxazol-4-yl)-3,6-dihydropyrimidin-4-yl)methyl)-3-thioxohexahydroimidazo[1,5-a]pyrazin-2(3H)-yl)-2,2-dimethylpropanoic acid], in the series with HBV (setting [2]), the EC50 was found to be 12 nM. In addition, the CC50 at 6 days in series [1] came out at 37800 nM.

Take `COC(=O)C1=C(CN2CCN3C(=S)N(CC(C)(C)C(=O)O)C[C@@H]3C2)NC(c2ncoc2C)=N[C@H]1c1ccc(F)cc1Cl` (single isomer, unassigned) [Compound 34A, 3-(7-((6-(2-Chloro-4-fluorophenyl)-5-(methoxycarbonyl)-2-(5-methyloxazol-4-yl)-3,6-dihydropyrimidin-4-yl)methyl)-3-thioxohexahydroimidazo[1,5-a]pyrazin-2(3H)-yl)-2,2-dimethylpropanoic acid]: the EC50 with HBV (setting [2]) is 7.9 nM. In series [1], half-maximal cytotoxicity (CC50 at 6 days) was put at 47400 nM.

`CCOC(=O)C1=C(CN2CCN3C(=S)N(C[C@@H](C)C(=O)O)C[C@@H]3C2)NC(c2ncoc2C)=NC1c1cccc(F)c1C` (single isomer, unassigned) [Compound 32A, 3-(7-((5-(Ethoxycarbonyl)-6-(3-fluoro-2-methylphenyl)-2-(5-methyloxazol-4-yl)-3,6-dihydropyrimidin-4-yl)methyl)-3-thioxohexahydroimidazo[1,5-a]pyrazin-2(3H)-yl)-2-methylpropanoic acid]: the EC50 in the series with HBV (setting [2]) was 24.9 nM. This compound showed a half-maximal cytotoxic concentration (CC50) at 6 days in series [1] of 41000 nM.

In the case of `CCOC(=O)C1=C(CN2CCN3C(=S)N(CC(C)(C)C(=O)O)CC3C2)NC(c2nccs2)=NC1c1cccc(F)c1Cl` (single isomer, unassigned) [Compound 3A, 3-(7-((6-(2-chloro-3-fluorophenyl)-5-(ethoxycarbonyl)-2-(thiazol-2-yl)-3,6-dihydropyrimidin-4-yl)methyl)-3-thioxohexahydroimidazo[1,5-a]pyrazin-2(3H)-yl)-2,2-dimethylpropanoic acid], the EC50 with HBV worked out at 19 nM. For the same compound, in series [1], the midpoint of cytotoxicity, the CC50 at 6 days, lay at 25200 nM.

In the case of `CCOC(=O)C1=C(CN2CCN3C(=S)N(C(C)(C)CC(=O)O)CC3C2)NC(c2nccs2)=N[C@H]1c1cccc(F)c1C` (single isomer, unassigned) [Compound 30A], the concentration for a half-maximal effect (EC50) with HBV (setting [2]) stood at 5 nM. This compound also came in with a CC50 at 6 days in series [1] of 8600 nM.

Turning to `[2H][C@@]1(c2cccc(F)c2C)N=C(c2nccs2)NC(CN2CCN3C(=S)N(CC(C)(C)C(=O)O)C[C@@H]3C2)=C1C(=O)OCC` (single isomer, unassigned) [Compound 36B, 3-(7-((6-Deutero-5-(ethoxycarbonyl)-6-(3-fluoro-2-methylphenyl)-2-(thiazol-2-yl)-3,6-dihydropyrimidin-4-yl)methyl)-3-thioxohexahydroimidazo[1,5-a]pyrazin-2(3H)-yl)-2,2-dimethylpropanoic acid], in the series on HBV (setting [2]), the EC50 was determined as 2.6 nM. In series [1], the 50% cytotoxic concentration (CC50) at 6 days was 23000 nM.

With `CCOC(=O)C1=C(CN2CCN3C(=S)N(CC4(C(=O)O)CCC4)CC3C2)NC(c2nccs2)=N[C@H]1c1cccc(F)c1C` (single isomer, unassigned) [Compound 29B], in the series on HBV (setting [2]), the EC50 was determined as 1.5 nM. Besides, the CC50 at 6 days in series [1] was determined as 11200 nM.

For `CCOC(=O)C1=C(CN2CCN3C(=S)N(CC(C)(C)C(=O)O)CC[C@H]3C2)NC(c2nccs2)=N[C@H]1c1cccc(F)c1C` [Compound 6, 3-((S)-2-(((S)-5-(ethoxycarbonyl)-6-(3-fluoro-2-methylphenyl)-2-(thiazol-2-yl)-3,6-dihydropyrimidin-4-yl)methyl)-6-thioxohexahydro-2H-pyrazino[1,2-c]pyrimidin-7(6H)-yl)-2,2-dimethylpropanoic acid], in the series on HBV (setting [2]), the EC50 was found to be 67 nM. Besides, in series [1], the CC50 at 6 days amounted to 20500 nM.

Take `CCOC(=O)C1=C(CN2CCN3C(=S)N(CC(C)(C)C(=O)O)CC3C2)NC(c2nccs2)=NC1c1ccc(F)c(F)c1Cl` (single isomer, unassigned) [Compound 14A, 3-(7-((6-(2-Chloro-3,4-difluorophenyl)-5-(ethoxycarbonyl)-2-(thiazol-2-yl)-3,6-dihydropyrimidin-4-yl)methyl)-3-thioxohexahydroimidazo[1,5-a]pyrazin-2(3H)-yl)-2,2-dimethylpropanoic acid]: the EC50 in the series with HBV (setting [2]) was determined as 1.2 nM. For the same compound, in series [1], the 50% cytotoxic concentration (CC50) at 6 days worked out at 9600 nM.

As for `CCOC(=O)C1=C(CN2CCN3C(=S)N(c4ccc(C(=O)O)cc4)CC3C2)NC(c2nccs2)=N[C@H]1c1cccc(F)c1C` (stereo in doubt) [Compound 23, 4-(7-((5-(ethoxycarbonyl)-6-(3-fluoro-2-methylphenyl)-2-(thiazol-2-yl)-3,6-dihydropyrimidin-4-yl)methyl)-3-thioxohexahydroimidazo[1,5-a]pyrazin-2(3H)-yl)benzoic acid], in the series on HBV (setting [2]), the EC50 was determined as 4.6 nM. Also, in series [1], the CC50 at 6 days came out at 2600 nM.

Turning to `CCOC(=O)C1=C(CN2CCN3C(=S)N(C)C[C@@H]3[C@H]2C(=O)O)NC(c2nccs2)=N[C@H]1c1cccc(F)c1Cl` (relative stereo) [Compound 19A, (trans)-7-((6-(2-chloro-3-fluorophenyl)-5-(ethoxycarbonyl)-2-(thiazol-2-yl)-3,6-dihydropyrimidin-4-yl)methyl)-2-methyl-3-thioxooctahydro-imidazo[1,5-a]pyrazine-8-carboxylic acid], the EC50 in the series on HBV (setting [2]) was found to be 40.5 nM. Further, the cytotoxic concentration (CC50) at 6 days in series [1] turned out to be 89900 nM.

Take `CCOC(=O)C1=C(CN2CCN3C(=S)N(CCC(C)(C)C(=O)O)CC3C2)NC(c2nccs2)=N[C@H]1c1cccc(F)c1C` (stereo partly drawn) [Compound 28, 4-(7-(((S)-5-(ethoxycarbonyl)-6-(3-fluoro-2-methylphenyl)-2-(thiazol-2-yl)-3,6-dihydropyrimidin-4-yl)methyl)-3-thioxohexahydroimidazo[1,5-a]pyrazin-2(3H)-yl)-2,2-dimethylbutanoic acid]: in the series with HBV (setting [2]), the EC50 came to 5.8 nM. This compound also yielded a CC50 at 6 days in series [1] of 10900 nM.

For `CCOC(=O)C1=C(CN2CCN3C(=S)N(CC(C)C(=O)O)C[C@@H]3C2)NC(c2nccs2)=N[C@H]1c1cccc(F)c1C` (single isomer, unassigned) [Compound 27A], the concentration for a half-maximal effect (EC50) in the series on HBV (setting [2]) came to 4.8 nM. For the same compound, in series [1], the 50% cytotoxic concentration (CC50) at 6 days stood at 23600 nM.

Turning to `COC(=O)C1=C(CN2CCN3C(=S)N(CC(C)(C)C(=O)O)CC3C2)NC(c2ncoc2C)=NC1c1cccc(F)c1C` (single isomer, unassigned) [Compound 31A, 3-(7-((6-(3-Fluoro-2-methylphenyl)-5-(methoxycarbonyl)-2-(5-methyloxazol-4-yl)-3,6-dihydropyrimidin-4-yl)methyl)-3-thioxohexahydroimidazo[1,5-a]pyrazin-2(3H)-yl)-2,2-dimethylpropanoic acid], the concentration for a half-maximal effect (EC50) in the series with HBV (setting [2]) came to 15 nM. This compound also registered a CC50 at 6 days in series [1] of 43700 nM.

In the case of `CCOC(=O)C1=C(CN2CCN3C(=S)N(CC(C)(C)C(=O)O)C[C@@H]3C2)NC(c2nccs2)=N[C@H]1c1ccc(F)cc1Cl` (single isomer, unassigned) [Compound 21A, 3-(7-((6-(2-chloro-4-fluorophenyl)-5-(ethoxycarbonyl)-2-(thiazol-2-yl)-3,6-dihydropyrimidin-4-yl)methyl)-3-thioxohexahydroimidazo[1,5-a]pyrazin-2(3H)-yl)-2,2-dimethylpropanoic acid], the half-maximal effective concentration (EC50) in the series with HBV (setting [2]) was found to be 6 nM. Moreover, the CC50 at 6 days in series [1] was 15200 nM.

Take `COC(=O)C1=C(CN2CCN3C(=S)N(CC(C)(C)C(=O)O)C[C@@H]3C2)NC(c2nccs2)=N[C@H]1c1ccc(F)cc1Br` (single isomer, unassigned) [Compound 16B, 3-(7-((6-(2-Bromo-4-fluorophenyl)-5-(methoxycarbonyl)-2-(thiazol-2-yl)-3,6-dihydropyrimidin-4-yl)methyl)-3-thioxohexahydroimidazo[1,5-a]pyrazin-2(3H)-yl)-2,2-dimethylpropanoic acid]: the EC50 in the series with HBV (setting [2]) was 808 nM. Further, in series [1], the midpoint of cytotoxicity, the CC50 at 6 days, lay at 29500 nM.

Take `COC(=O)C1=C(CN2CCN3C(=S)N(CC(C)(C)C(=O)O)CC3C2)NC(c2nccs2)=NC1c1ccc(F)c(F)c1C` (single isomer, unassigned) [Compound 12B, 3-(7-((6-(3,4-Difluoro-2-methylphenyl)-5-(methoxycarbonyl)-2-(thiazol-2-yl)-3,6-dihydropyrimidin-4-yl)methyl)-3-thioxohexahydroimidazo[1,5-a]pyrazin-2(3H)-yl)-2,2-dimethylpropanoic acid]: the concentration giving a half-maximal response (EC50) in the series on HBV (setting [2]) amounted to 2 nM. In series [1], half-maximal cytotoxicity (CC50 at 6 days) was put at 14500 nM.
